The record followed here is publication PMC3546729, “Electrochemical Characterization of Escherichia coli Adaptive Response Protein AidB” (International Journal of Molecular Sciences, 2012).

For assay [1], the target named is T1, AidB (Escherichia coli, UniProt P33224).
T1 construct: predominantly tetramer in solution
T1 sequence (P33224 1-541): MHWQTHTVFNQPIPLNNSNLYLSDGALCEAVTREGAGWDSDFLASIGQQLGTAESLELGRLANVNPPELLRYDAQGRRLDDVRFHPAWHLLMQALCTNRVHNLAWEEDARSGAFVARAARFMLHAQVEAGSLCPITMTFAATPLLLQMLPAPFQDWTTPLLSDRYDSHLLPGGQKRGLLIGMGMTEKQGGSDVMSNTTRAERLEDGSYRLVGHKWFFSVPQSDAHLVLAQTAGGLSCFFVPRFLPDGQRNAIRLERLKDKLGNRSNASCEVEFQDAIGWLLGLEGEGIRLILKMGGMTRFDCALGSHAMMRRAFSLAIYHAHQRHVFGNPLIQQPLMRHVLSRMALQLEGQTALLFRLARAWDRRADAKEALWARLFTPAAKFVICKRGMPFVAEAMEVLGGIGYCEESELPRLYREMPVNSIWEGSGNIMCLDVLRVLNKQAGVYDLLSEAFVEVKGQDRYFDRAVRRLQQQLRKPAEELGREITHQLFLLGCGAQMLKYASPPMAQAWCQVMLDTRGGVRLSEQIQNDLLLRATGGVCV
The assay can be described thus: UV-visible spectroscopy and redox potentiometry of bound flavin. In kind it is binding. Conditions: bound FAD of the purified protein; pH 8.0, 300 mM NaCl, anaerobic.

Assay [2] addresses T1, AidB. Kind of assay: shift of flavin midpoint reduction potential (xanthine/xanthine oxidase redox potentiometry), two-state binding fit. To be noted: read-out: Kd^app.

Regarding `Cc1cc2nc3c(=O)[nH]c(=O)nc-3n(C[C@H](O)[C@H](O)[C@H](O)COP(=O)(O)OP(=O)(O)OC[C@H]3O[C@@H](n4cnc5c(N)ncnc54)[C@H](O)[C@@H]3O)c2cc1C` [FAD], the “UV-visible spectroscopy and redox potentiometry of bound flavin” value at AidB [1] is listed as “Reduction potentials of the AidB FAD cofactor were measured using the xanthine/xanthine oxidase system”.

As to `CC(C)CC(=O)SCCNC(=O)CCNC(=O)[C@H](O)C(C)(C)COP(=O)(O)OP(=O)(O)OC[C@H]1O[C@@H](n2cnc3c(N)ncnc32)[C@H](O)[C@@H]1OP(=O)(O)O` [IVCoA], the Kd at AidB [2] was 87 ± 27 µM.
